Test: Log P by HPLC on reversed phase columns (EEC directive 79/831 Annex V.A8)
Assay type: physicochemical
Conditions: method [a]
Experimental: In the above tables, measurement of Log P values was performed according to EEC directive 79/831 Annex V.A8 by HPLC (High Performance Liquid Chromatography) on reversed phase columns with the following methods: • ^[a] Log P value is determined by measurement of LC-UV, in an acidic range, with 0.1% formic acid in water and acetonitrile as eluent (linear gradient from 10% acetonitrile to 95% acetonitrile). • ^[b] Log P value is determined by measurement of LC-UV, in a neutral range, with 0.001 molar ammonium acetate solution in water and acetonitrile as eluent (linear gradient from 10% acetonitrile to 95% acetonitrile). • ^[c] Log P value is determined by measurement of LC-UV, in an acidic range, with 0.1% phosphoric acid and acetonitrile as eluent (linear gradient from 10% acetonitrile to 95% acetonitrile). If more than one Log P value is available within the same method, all the values are given and separated by “+”. Calibration was done with straight-chain alkan2-ones (with 3 to 16 carbon atoms) with known Log P values (measurement of Log P values using retention times with linear interpolation between successive alkanones). Lambda-max-values were determined using UV-spectra from 200 nm to 400 nm and the peak values of the chromatographic signals.

LogP	Compound
4.47^[a]	CCOC(=O)C(CCSC)NC(=O)c1sc(Cl)c(Br)c1Cl (stereo not shown) [1.0186]
5.04^[a]	CCOC(=O)C(Cc1ccccc1)NC(=O)c1sc(Cl)c(Br)c1Cl (stereo not shown) [1.0187]
2.72^[a]	N#CCNC(=O)c1sc(Cl)c(Cl)c1I [1.0188]
3.47^[a]	CCOC(=O)CCNC(=O)c1sc(Cl)c(Cl)c1I [1.0189]
3.84^[a]	COC(=O)C(NC(=O)c1sc(Cl)c(Cl)c1I)C1CC1 (stereo not shown) [1.0190]
4.12^[a]	CCOC(=O)C1(NC(=O)c2sc(Cl)c(Cl)c2I)CCC1 [1.0191]
3.64^[a]	COC(=O)C(CC(F)F)NC(=O)c1sc(Cl)c(Cl)c1I (stereo not shown) [1.0192]
2.67^[a]	N#CCNC(=O)c1sc(Br)c(Cl)c1Cl [1.0193]
2.86^[a]	COC(=O)CNC(=O)c1sc(Br)c(Cl)c1Cl [1.0194]
3.28^[a]	CCOC(=O)CNC(=O)c1sc(Br)c(Cl)c1Cl [1.0195]
3.47^[a]	CCOC(=O)CCNC(=O)c1sc(Br)c(Cl)c1Cl [1.0196]
3.47^[a]	CCOC(=O)C1(NC(=O)c2sc(Br)c(Cl)c2Cl)CC1 [1.0197]
3.87^[a]	COC(=O)C(NC(=O)c1sc(Br)c(Cl)c1Cl)C1CC1 (stereo not shown) [1.0198]
4.26^[a]	CCOC(=O)C1(NC(=O)c2sc(Br)c(Cl)c2Cl)CCC1 [1.0199]
4.89^[a]	CCOC(=O)C(NC(=O)c1sc(Br)c(Cl)c1Cl)C(C)C (stereo not shown) [1.0200]
3.60^[a]	COC(=O)C(CC(F)F)NC(=O)c1sc(Br)c(Cl)c1Cl (stereo not shown) [1.0201]
5.16^[a]	CCOC(=O)C(CC(C)C)NC(=O)c1sc(Br)c(Cl)c1Cl (stereo not shown) [1.0202]
4.44^[a]	CCOC(=O)C(CCSC)NC(=O)c1sc(Br)c(Cl)c1Cl (stereo not shown) [1.0203]
5.00^[a]	CCOC(=O)C(Cc1ccccc1)NC(=O)c1sc(Br)c(Cl)c1Cl (stereo not shown) [1.0204]
2.41^[a]	N#CCNC(=O)c1sc(Br)c(Br)c1F [1.0205]
2.72^[a]	N#CCNC(=O)c1sc(Cl)c(Br)c1Br [1.0206]
2.91^[a]	COC(=O)CNC(=O)c1sc(Cl)c(Br)c1Br [1.0207]
3.35^[a]	CCOC(=O)CNC(=O)c1sc(Cl)c(Br)c1Br [1.0208]
3.57^[a]	CCOC(=O)CCNC(=O)c1sc(Cl)c(Br)c1Br [1.0209]
3.48^[a]	CCOC(=O)C1(NC(=O)c2sc(Cl)c(Br)c2Br)CC1 [1.0210]

LogP	Compound
3.89^[a]	COC(=O)C(NC(=O)c1sc(Cl)c(Br)c1Br)C1CC1 (stereo not shown) [1.0211]
4.24^[a]	CCOC(=O)C1(NC(=O)c2sc(Cl)c(Br)c2Br)CCC1 [1.0212]
4.89^[a]	CCOC(=O)C(NC(=O)c1sc(Cl)c(Br)c1Br)C(C)C (stereo not shown) [1.0213]
3.64^[a]	COC(=O)C(CC(F)F)NC(=O)c1sc(Cl)c(Br)c1Br (stereo not shown) [1.0214]
5.18^[a]	CCOC(=O)C(CC(C)C)NC(=O)c1sc(Cl)c(Br)c1Br (stereo not shown) [1.0215]
4.40^[a]	CCOC(=O)C(CCSC)NC(=O)c1sc(Cl)c(Br)c1Br (stereo not shown) [1.0216]
5.04^[a]	CCOC(=O)C(Cc1ccccc1)NC(=O)c1sc(Cl)c(Br)c1Br (stereo not shown) [1.0217]
3.22^[a]	O=C(NC(Cc1ccccc1)C(=O)O)c1sc(Br)c(Br)c1F (stereo not shown) [1.0226]
2.01^[a]	O=C(O)CNC(=O)c1sc(Br)c(Br)c1F [1.0227]
1.77^[a]	O=C(NC(CO)C(=O)O)c1sc(Br)c(Br)c1F (stereo not shown) [1.0228]
3.34^[a]	CC(C)CC(NC(=O)c1sc(Br)c(Br)c1F)C(=O)O (stereo not shown) [1.0229]
1.65^[a]	NC(=O)CCC(NC(=O)c1sc(Br)c(Br)c1F)C(=O)O (stereo not shown) [1.0230]
3.05^[a]	O=C(NC(Cc1c[nH]c2ccccc12)C(=O)O)c1sc(Br)c(Br)c1F (stereo not shown) [1.0231]
2.72^[a]	CCOC(=O)C1(NC(=O)c2sc(Cl)c(Cl)c2C#N)CC1 [1.0232]
2.28^[a]	CC(NC(=O)c1sc(Br)c(Br)c1F)C(=O)O (stereo not shown) [1.0233]
2.97^[a]	CC(C)C(NC(=O)c1sc(Br)c(Br)c1F)C(=O)O (stereo not shown) [1.0234]
2.52^[a]	CCOC(=O)CNC(=O)c1sc(Cl)c(Cl)c1C#N [1.0236]
3.59^[a]	CCOC(=O)C(CCSC)NC(=O)c1cc(Cl)c(Br)s1 (stereo not shown) [1.0237]
3.65^[a]	CCOC(=O)C(CCSC)NC(=O)c1cc(Br)c(Cl)s1 (stereo not shown) [1.0238]
2.23^[a]	COC(=O)CNC(=O)c1cc(Cl)c(Br)s1 [1.0239]
2.36^[a]	COC(=O)CNC(=O)c1cc(Br)c(Cl)s1 [1.0240]
2.14^[a]	COC(=O)CNC(=O)c1sc(C#N)c(Br)c1C [1.0241]
3.34^[a]	CCOC(=O)C(CCSC)NC(=O)c1sc(C#N)c(Br)c1C (stereo not shown) [1.0242]
2.26^[a]	COC(=O)C1(NC(=O)c2sc(C#N)c(Br)c2C)CC1 [1.0243]
3.07^[a]	CCOC(=O)C1(NC(=O)c2sc(C#N)c(Br)c2C)CCC1 [1.0244]

LogP	Compound
3.85^[a]	CCOC(=O)C(CC(C)C)NC(=O)c1sc(C#N)c(Br)c1C (stereo not shown) [1.0245]
1.79^[a]	O=C(O)CNC(=O)c1cc(Cl)c(Br)s1 [1.0247]
1.81^[a]	O=C(O)CNC(=O)c1cc(Br)c(Cl)s1 [1.0248]
1.61^[a]	Cc1c(C(=O)NCC(=O)O)sc(C#N)c1Br [1.0249]
1.84^[a]	Cc1c(C(=O)NC2(C(=O)O)CC2)sc(C#N)c1Br [1.0250]
4.08^[a]	CCSC(=O)C1(NC(=O)c2sc(Cl)c(Cl)c2C)CC1 [1.0251]
3.74^[a]	CCSC(=O)C1(NC(=O)c2sc(Br)c(Cl)c2C)CC1 [1.0252]
3.77^[a]	CCSC(=O)C1(NC(=O)c2sc(Cl)c(Br)c2C)CC1 [1.0253]
2.64^[a]	Cc1c(C(=O)NC(C(=O)O)C2CC2)sc(Br)c1Cl (stereo not shown) [1.0254]
2.67^[a]	Cc1c(C(=O)NC(C(=O)O)C2CC2)sc(Cl)c1Br (stereo not shown) [1.0255]
1.66^[a]	NC(=O)CC(NC(=O)c1sc(Br)c(Br)c1F)C(=O)O (stereo not shown) [1.0256]
3.07^[a]	CCOC(=O)C(C#N)NC(=O)c1sc(Br)c(Br)c1F (stereo not shown) [1.0257]
2.57^[a]	CCOC(=O)C1(NC(=O)c2sc(C#N)c(Cl)c2C)CC1 [1.0258]
3.01^[a]	COC(=O)C(NC(=O)c1cc(Cl)c(Br)s1)C1CC1 (stereo not shown) [1.0259]
3.07^[a]	COC(=O)C(NC(=O)c1cc(Br)c(Cl)s1)C1CC1 (stereo not shown) [1.0260]
2.75^[a]	COC(=O)C(NC(=O)c1sc(C#N)c(Br)c1C)C1CC1 (stereo not shown) [1.0261]
3.81^[a]	COC(=O)C(NC(=O)c1sc(Br)c(Br)c1I)C1CC1 (stereo not shown) [1.0262]
3.84^[a]	COC(=O)C(NC(=O)c1sc(Cl)c(Cl)c1Br)C1CC1 (stereo not shown) [1.0263]
3.84^[a]	COC(=O)C(NC(=O)c1sc(Br)c(Br)c1Cl)C1CC1 (stereo not shown) [1.0264]
2.41^[a]	O=C(NC1(C(=O)O)CC1)c1sc(Cl)c(Br)c1Br [1.0265]
3.81^[a]	CCOC(=O)C(NC(=O)c1sc(Cl)c(Br)c1C)C1CC1 (stereo not shown) [1.0266]
3.07^[a]	COC(=O)C(NC(=O)c1sc(Cl)c(Br)c1C)C(=O)OC [1.0267]
4.30^[a]	CCOC(=O)C(CC1CC1)NC(=O)c1sc(Cl)c(Br)c1C (stereo not shown) [1.0268]
3.98^[a]	COC(=O)C(NC(=O)c1sc(Cl)c(Br)c1C)(C1CC1)C1CC1 [1.0269]

Same assay, conditions: method marked [a]

LogP	Compound
3.87^[a]	CCOC(=O)C(NC(=O)c1sc(Cl)c(Br)c1C)C(=O)OCC [1.0270]
4.23^[a]	CCOC(=O)C1(NC(=O)c2sc(Cl)c(Br)c2C)CN(C(=O)OC(C)(C)C)C1 [1.0271]
3.77^[a]	CCOC(=O)C(NC(=O)c1sc(Br)c(Cl)c1C)C1CC1 (stereo not shown) [1.0272]
3.04^[a]	COC(=O)C(NC(=O)c1sc(Br)c(Cl)c1C)C(=O)OC [1.0273]
4.26^[a]	CCOC(=O)C(CC1CC1)NC(=O)c1sc(Br)c(Cl)c1C (stereo not shown) [1.0274]
3.94^[a]	COC(=O)C(NC(=O)c1sc(Br)c(Cl)c1C)(C1CC1)C1CC1 [1.0275]
3.84^[a]	CCOC(=O)C(NC(=O)c1sc(Br)c(Cl)c1C)C(=O)OCC [1.0276]
4.19^[a]	CCOC(=O)C1(NC(=O)c2sc(Br)c(Cl)c2C)CN(C(=O)OC(C)(C)C)C1 [1.0277]
1.66^[a]	COC(=O)[C@H](CCCNC(=N)N)NC(=O)c1sc(Br)c(Br)c1F [1.0278]
4.05^[a]	CCOC(=O)C(CC(C)C)NC(=O)c1sc(Cl)c(Cl)c1C#N (stereo not shown) [1.0279]
3.77^[a]	CCOC(=O)C(NC(=O)c1sc(Cl)c(Cl)c1C#N)C(C)C (stereo not shown) [1.0280]
2.10^[a]	COC(=O)C1(NC(=O)c2cc(Br)c(C#N)s2)CC1 [1.0281]
1.70^[a]	N#Cc1sc(C(=O)NC2(C(=O)O)CC2)cc1Br [1.0282]
2.21^[a]	COC(=O)C1(NC(=O)c2sc(C#N)c(Cl)c2C)CC1 [1.0283]
2.41^[a]	O=C(NC(C(=O)O)C1CC1)c1cc(Cl)c(Br)s1 (stereo not shown) [1.0284]
2.44^[a]	O=C(NC(C(=O)O)C1CC1)c1cc(Br)c(Cl)s1 (stereo not shown) [1.0285]
2.19^[a]	Cc1c(C(=O)NC(C(=O)O)C2CC2)sc(C#N)c1Br (stereo not shown) [1.0286]
2.95^[a]	O=C(NC(C(=O)O)C1CC1)c1sc(Cl)c(Cl)c1Br (stereo not shown) [1.0287]
2.49^[a]	O=C(NC(C(=O)NC(C(=O)O)C1CC1)C1CC1)c1cc(Br)c(Cl)s1 (stereo not shown) [1.0288]
2.97^[a]	O=C(NC(C(=O)NC(C(=O)O)C1CC1)C1CC1)c1sc(Cl)c(Cl)c1Br (stereo not shown) [1.0289]

— US12642270B2, “Substituted thiophene carboxamides, thiophene carboxylic acids and derivatives thereof” (Bayer Aktiengesellschaft, priority 2019, dated 2026)
